In PubChem BioAssay AID504345 (Broad Institute, 2011) one finds caspase activation and AC10 data, which are given here for 21 compounds.

The structures appear in SMILES notation. Calls of active or inactive are those of the source.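 How the source made its calls: active means fitted curve climbs past 10% caspase activation, relative to the positive control, at or below the top valid tested dose; inactive means the rest, including activity in the opposite direction.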

Tested on in one test: not listed separately
As to the kind of experiment: caspase activation in A1-dependent BIM-primed MEFs, dose response, Bcl2-A1 inhibitor project, cell-based, MEF A1-2A-BIM, luminescence, dry powder, set 2 (AID 504345). The conditions noted are these: MEF A1-2A-BIM cells, caspase 3/7 luminescence; at 35 µM (top of the series).
On to `Cc1ccc(Nc2c([N+](=O)[O-])c(=O)oc3ccccc23)cc1`, for which the caspase activation was 1.97% (inactive).

On to `C/C1=C/C(=O)O[C@@H]2C[C@@H](CC[C@H](C)/C=C\CC1)O[C@@](O)(C1CSC(=O)N1)C2` (stereo partly specified), for which the caspase activation is 9.53% (inactive).

As for `O=C(Oc1cccc(/C=N/Nc2nc(Nc3ccccc3)nc(N3CCOCC3)n2)c1)c1ccco1`, the caspase activation was 6.44% (inactive).

Consider `Cc1ccc(Sc2cc(=O)n(C)c3ccccc23)cc1`, for which the caspase activation is -11.4% (inactive).

As for `O=c1oc2ccccc2c(Nc2cc(Cl)cc(Cl)c2)c1[N+](=O)[O-]`, the caspase activation was -2.92% (inactive).

Regarding `O=c1oc2ccccc2c(Sc2ccccc2)c1[N+](=O)[O-]`, the caspase activation was -9.2% (inactive).

For the compound `Cn1c(=O)c([N+](=O)[O-])c(Oc2ccccc2)c2ccccc21`, the caspase activation is 4.18% (inactive).

For the compound `O=c1oc2ccccc2c(N2CCCCC2)c1[N+](=O)[O-]`, the caspase activation is -1.93% (inactive).

As to `CCOC(=O)N1CCN(c2c([N+](=O)[O-])c(=O)n(C)c3ccccc23)CC1`, the caspase activation is -2.42% (inactive).

For the compound `CCSc1c([N+](=O)[O-])c(=O)oc2ccccc12`, the caspase activation is -6.49% (inactive).

Consider `CCOCCCNc1c([N+](=O)[O-])c(=O)n(C)c2ccccc12`, for which the caspase activation is 2.29% (inactive).

Consider `Cc1ccc(Nc2c([N+](=O)[O-])c(=O)n(C)c3ccccc23)cc1`, for which the caspase activation was -2.07% (inactive).

For the compound `Cc1ccc(Sc2c([N+](=O)[O-])c(=O)oc3ccccc23)cc1`, the caspase activation is -5.88% (inactive).

Consider `O=c1oc2ccccc2c(Cl)c1[N+](=O)[O-]`, for which the caspase activation is -8.87% (inactive).

Regarding `Cn1c(=O)c([N+](=O)[O-])c(Nc2ccc(Cl)cc2)c2ccccc21`, the caspase activation was -1.07% (inactive).

As for `O=[N+]([O-])c1cnc2ccccc2c1Sc1ccccc1`, the caspase activation was -2.86% (inactive).

With `CN1C(=O)C(C)(C)N(Cc2ccccc2)c2ccccc21`, the caspase activation was 0.119% (inactive).

The next test has as its system MEF A1-2A-BIM cells, caspase 3/7 luminescence. Described as above.
Conditions: not given
Take `Cn1c(=O)c([N+](=O)[O-])c(-n2cnc3ccccc32)c2ccccc21`: the AC10 is 9.42 µM.

For `Cn1c(=O)c([N+](=O)[O-])c(Cl)c2ccccc21`, the AC10 is 0.632 µM.

As to `Cc1ccc(Sc2c([N+](=O)[O-])cnc3ccccc23)cc1`, the AC10 was 8.65 µM.

Turning to `Cc1ccc(Sc2c([N+](=O)[O-])c(=O)n(C)c3ccccc23)cc1`, the AC10 was 4.06 µM.
